Tests used:
GBM-28 [1] = assay: cell proliferation analysis (MTS assay); assay type: cell-based, human
Description: (§1) In order to confirm the anticancer efficacy of NUPR1 isoform A inhibitors in brain tumors, experiments were performed using brain tumor patient-derived cell lines obtained from primary glioblastoma patients (GBM-28) and secondary gliosarcoma patients (GBM-37).
(§2) In addition, after treating GBM-28 and GBM-37 with 3dc, cell proliferation analysis (MTS assay) was performed. As a result of treating GBM-28 and GBM-37 with 3dc, respectively, it was confirmed that cell proliferation was inhibited compared to the untreated control group, and compared to the control group overexpressing (OE) NUPR1 isoform A in GBM-28, in the case of i) treating 3dc, ii) transfecting the NUPR1 isoform A with siRNAs of SEQ ID NOs: 5 and 6 (siNUPR1a), and iii) transfecting 3dc-treated NUPR1 isoform A with siRNAs of SEQ ID NOs: 5 and 6, the cell proliferation was all inhibited. In addition, compared to the untreated control GBM-37, in the case of i) transfecting the NUPR1 isoform A with siRNAs of SEQ ID NOs: 5 and 6 and ii) transfecting 3dc-trated NUPR1 isoform A with siRNAs of SEQ ID NOs: 5 and 6, the cell proliferation was all inhibited, confirming that 3dc inhibited the proliferation ability of brain tumor cells expressing the NUPR1 isoform A (FIG. 11).

GBM-37 [2] = assay: cell proliferation analysis (MTS assay); assay type: cell-based, human; settings: compared to untreated control
Description: as §1, §2

NUPR1 isoform A [3] = target: NUPR1 isoform A (Homo sapiens, UniProt O60356); assay: calorimetric titration of 3dc and NUPR1 isoform A; settings: read-out: binding affinity between the NUPR1 isoform A and 3dc
Chain of NUPR1 isoform A (Homo sapiens, UniProt O60356) (O60356 1-100 isoform O60356-2): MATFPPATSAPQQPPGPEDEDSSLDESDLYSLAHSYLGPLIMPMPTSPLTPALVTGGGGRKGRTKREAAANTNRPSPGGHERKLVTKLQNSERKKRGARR
Description: Additionally, calorimetric titrations of 3dc and the NUPR1 isoform A were determined.

HCT116 [4] = assay: cell viability, colon cancer cells; assay type: cell-based; settings: as treatment concentration of 3dc increased
Text: (§3) For colon cancer cells, HT29 and HCT116, as the treatment concentration of 3dc, a NUPR1 isoform A inhibitor, increased, cell viability decreased, confirming the anticancer efficacy of 3dc (FIG. 22).

HT29 [5] = assay: cell viability, colon cancer cells; assay type: cell-based; settings: as treatment concentration of 3dc increased
Text: as §3

HepG2 = assay: cell viability, liver cancer cells; assay type: cell-based; settings: as treatment concentration of 3dc increased
Text: (§4) For liver cancer cells, HepG2 and Hep3B, as the treatment concentration of 3dc, a NUPR1 isoform A inhibitor, increased, cell viability decreased, confirming the anticancer efficacy of 3dc (FIG. 31).

Hep3B = assay: cell viability, liver cancer cells; assay type: cell-based; settings: as treatment concentration of 3dc increased
Text: as §4

BT-20 = assay: cell viability, breast cancer cells; assay type: cell-based; settings: as treatment concentration of 3dc increased
Text: (§5) For breast cancer cells, BT-20 and MCF7, as the treatment concentration of 3dc, a NUPR1 isoform A inhibitor, increased, cell viability decreased, confirming the anticancer efficacy of 3dc (FIGS. 32, 33, and 34).

MCF7 = assay: cell viability, breast cancer cells; assay type: cell-based; settings: as treatment concentration of 3dc increased
Text: as §5

GBM-28 [6] = assay: cell viability with increasing 3dc concentration; assay type: cell-based, human; settings: as treatment concentration of 3dc increased
Description: as §1

GBM-37 [7] = assay: cell viability with increasing 3dc concentration; assay type: cell-based, human; settings: as treatment concentration of 3dc increased
Description: as §1

KATOIII = assay: cell viability, gastric cancer cells; assay type: cell-based; settings: as treatment concentration of 3dc increased
Text: (§6) For gastric cancer cells, KATOIII and NCl-N87, as the treatment concentration of 3dc, a NUPR1 isoform A inhibitor, increased, cell viability decreased, confirming the anticancer efficacy of 3dc (FIG. 35).

NCl-N87 = assay: cell viability, gastric cancer cells; assay type: cell-based; settings: as treatment concentration of 3dc increased
Text: as §6

GBM-37 [8] = assay: wound healing assay; assay type: cell-based, human; settings: GBM-37 compared with GBM-28
Description: as §1

NUPR1 isoform A [9] = assay: immunochemical analysis of nuclear transfer of NUPR1 isoform A; assay type: cell-based, human; settings: GBM-37, immunochemical analysis
Description: as §1
First, through immunochemical analysis, it was confirmed that when GBM-37 was treated with 3dc, nuclear transfer of the NUPR1 isoform A was inhibited, as shown in FIG. 6.

A549 [10] = assay: mouse model intravitreally injected with lung cancer cells, tumor size; assay type: in vivo; settings: A549 in Balb/c nude mice, 1 mM 3dc, visually observed after 1, 2, 3 and 4 weeks
Description: (§7) In addition, lung cancer cells, A549 and NCI-H1299 was intravitreal injected into 6-week-old male Balb/c nude mice at 3×10^5 cells/2 μl according to a method disclosed in Lee et al. Experimental & Molecular Medicine (2019) 51:43, and then the tumor size of 1 mM 3dc treatment group (experimental group) and the untreated group (control group) was visually observed after 1 week, 2 weeks, 3 weeks and 4 weeks.

NCI-H1299 [11] = assay: as above; assay type: in vivo; settings: NCI-H1299 in Balb/c nude mice, 1 mM 3dc, visually observed after 1, 2, 3 and 4 weeks
Description: as §7

GBM-37 [12] = assay: cell viability after 3dc pre-treatment and temozolomide (anticancer adjuvant); assay type: cell-based, human
Description: To confirm whether 3dc, a NUPR1 isoform A inhibitor, may be applied as an anticancer adjuvant, brain tumor cell GBM-37 was treated with temozolomide (TMZ) and 3dc, and cell viability was confirmed.
GBM-37 was pre-treated with 50 nM, 100 nM, and 200 nM of 3dc for 24 hours, and then was treated with 250 μM, 500 μM, 1000 μM, 2000 μM, and 4000 μM of temozolomide, respectively, and cell viability was confirmed.

GBM-37 [13] = assay: cholecystokinin (CCK) measurement after treatment; assay type: cell-based, human; settings: GBM-37 compared with GBM-28
Description: as §1
In addition, after treating GBM-28 and GBM-37 with temozolomide and 3dc, respectively, cholecystokinin (CCK) results were measured.

Caov3 = assay: cell viability, ovary cancer cells; assay type: cell-based; settings: as treatment concentration of 3dc increased
Text: (§8) For ovary cancer cells, Caov3 and SKOV3, as the treatment concentration of 3dc, a NUPR1 isoform A inhibitor, increased, cell viability decreased, confirming the anticancer efficacy of 3dc (FIG. 30).

SKOV3 = assay: cell viability, ovary cancer cells; assay type: cell-based; settings: as treatment concentration of 3dc increased
Text: as §8

NUPR1 isoform A [14] = assay: NUPR1 isoform A mRNA expression level in GBM-28 and GBM-37; assay type: cell-based, human; settings: GBM-28 and GBM-37 cell lines, treated versus untreated
Description: as §1

GBM-37 [15] = assay: invasion and proliferation assay; assay type: cell-based, human; settings: GBM-37 compared with GBM-28
Description: as §1

A549 [16] = assay: cell viability, lung cancer cells; assay type: cell-based; settings: as treatment concentration of 3dc increased
Text: (§9) For lung cancer cells, A549 and NCI-H1299, as the treatment concentration of 3dc, a NUPR1 isoform A inhibitor, increased, cell viability decreased, confirming the anticancer efficacy of 3dc (FIG. 26).

NCI-H1299 [17] = assay: cell viability, lung cancer cells; assay type: cell-based; settings: as treatment concentration of 3dc increased
Text: as §9

A375P = assay: cell viability, skin cancer cells; assay type: cell-based; settings: as treatment concentration of 3dc increased
Text: (§10) For skin cancer cells, A375P and SK-MEL1, as the treatment concentration of 3dc, a NUPR1 isoform A inhibitor, increased, cell viability decreased, confirming the anticancer efficacy of 3dc (FIG. 29).

SK-MEL1 = assay: cell viability, skin cancer cells; assay type: cell-based; settings: as treatment concentration of 3dc increased
Text: as §10

GBM-37 [18] = assay: cDNA microarray transcriptome analysis; assay type: cell-based, human
Description: In addition, GBM-37 was treated with 100 nM of 3dc, and transcriptome changes were confirmed through cDNA microarray analysis.

PC3 = assay: cell viability, prostate cancer cells; assay type: cell-based; settings: as treatment concentration of 3dc increased
Text: (§11) For prostate cancer cells, DU145 and PC3, as the treatment concentration of 3dc, a NUPR1 isoform A inhibitor, increased, cell viability decreased, confirming the anticancer efficacy of 3dc (FIG. 21).

DU145 = assay: cell viability, prostate cancer cells; assay type: cell-based; settings: as treatment concentration of 3dc increased
Text: as §11

HCT116 [19] = assay: mouse model intravitreally injected with colon cancer cells, tumor size; assay type: in vivo; settings: HCT116 in Balb/c nude mice, 1 mM 3dc, visually observed after 1, 2, 3 and 4 weeks
Description: (§12) In addition, colon cancer cells, HT29 and HCT116 was intravitreal injected into 6-week-old male Balb/c nude mice at 3×10^5 cells/2 μl according to a method disclosed in Lee et al. Experimental & Molecular Medicine (2019) 51:43, and then the tumor size of 1 mM 3dc treatment group (experimental group) and the untreated group (control group) was visually observed after 1 week, 2 weeks, 3 weeks and 4 weeks.

HT29 [20] = assay: as above; assay type: in vivo; settings: HT29 in Balb/c nude mice, 1 mM 3dc, visually observed after 1, 2, 3 and 4 weeks
Description: as §12

SNU790 = assay: cell viability, thyroid cancer cells; assay type: cell-based; settings: as treatment concentration of 3dc increased
Text: (§13) For thyroid cancer cells, SNU80 and SNU790, as the treatment concentration of 3dc, a NUPR1 isoform A inhibitor, increased, cell viability decreased, confirming the anticancer efficacy of 3dc (FIG. 25).

SNU80 = assay: cell viability, thyroid cancer cells; assay type: cell-based; settings: as treatment concentration of 3dc increased
Text: as §13

[21] = GBM-28 overexpressing (OE) NUPR1 isoform A, MTS assay, compared to OE control group
[22] = GBM-37, gene ontology and network analysis

siNUPR1a: siRNAs of SEQ ID NOs: 5 and 6 directed against NUPR1 isoform A (chain 1 GCCUAUGCCCACUUCACCUUU; chain 2 AGGUGAAGUGGGCAUAGGCUU; listed as RNA, chemistry not given here)
cell proliferation (GBM-28 [1]; [21]): inhibited | cell proliferation (GBM-37 [2]; GBM-37, MTS assay): inhibited

FC(F)(F)c1ccc2c(c1)N(CCCCN1CCC(N3CCCC3)CC1)c1ccccc1S2 [3dc, 10-(4-(4-(pyrrolidin-1-yl)piperidin-1-yl)butyl)-2-(trifluoromethyl)-10H-phenothiazine]
Kd (NUPR1 isoform A [3]): 89 µM | cell viability (HCT116 [4]): decreased | cell viability (HT29 [5]): decreased | cell viability (HepG2): decreased | cell viability (Hep3B): decreased | cell viability (BT-20): decreased | cell viability (MCF7): decreased | cell viability (GBM-28 [6]): decreased | cell viability (GBM-37 [7]): decreased | cell viability (KATOIII): decreased | cell viability (NCl-N87): decreased | inhibitory effect on cell migration (GBM-37 [8]): better inhibitory effect | nuclear transfer of the NUPR1 isoform A (NUPR1 isoform A [9]): inhibited | tumor size compared with control group (A549 [10]): smaller and more transparent | tumor size compared with control group (NCI-H1299 [11]): smaller and more transparent | cell viability compared to the untreated control group (GBM-37 [12]; GBM-37, 2000 μM temozolomide, 3dc at 50 nM, 100 nM and 200 nM): significantly reduced | cell viability compared to the untreated control group (GBM-37 [12]; GBM-37 pre-treated 24 hours with 50, 100, 200 nM 3dc, then 250-4000 μM temozolomide): significantly reduced | cell proliferation (GBM-28 [1]; GBM-28, MTS assay, compared to untreated control group): inhibited | cell proliferation (GBM-28 [1]; GBM-28 overexpressing (OE) NUPR1 isoform A, 3dc treatment combined with siNUPR1a transfection, compared to OE control group): inhibited | cell proliferation (GBM-28 [1]; [21]): inhibited | cell proliferation (GBM-37 [2]; GBM-37, 3dc treatment combined with siNUPR1a transfection): inhibited | cell proliferation (GBM-37 [2]; GBM-37, MTS assay): inhibited | cholecystokinin (CCK) results (GBM-37 [13]): better effect | cell viability (Caov3): decreased | cell viability (SKOV3): decreased | mRNA expression level of NUPR1 isoform A (NUPR1 isoform A [14]): significantly decreased | invasion inhibitory effect (GBM-37 [15]): better | proliferation inhibitory effect (GBM-37 [15]): better | cell viability (A549 [16]): decreased | cell viability (NCI-H1299 [17]): decreased | cell viability (A375P): decreased | cell viability (SK-MEL1): decreased | genes related to essential cell phenomena such as DNA repair, cell migration, and cell cycle (GBM-37 [18]; GBM-37, 100 nM 3dc, cDNA microarray): down-regulated | genomic aberrations of coding genes: most chromosomal genes (GBM-37 [18]; GBM-37, based on the transcriptome analysis): affected or down-regulated | basic biological processes such as DNA packaging and protein-DNA complex assembly (GBM-37 [18]; [22]): significantly inhibited | basic cellular components such as DNA packaging complexes and nucleosomes (GBM-37 [18]; [22]): destroyed | basic molecular functions such as nucleic acid binding and RNA binding (GBM-37 [18]; [22]): significantly inhibited | cell viability (PC3): decreased | cell viability (DU145): decreased | tumor size compared with control group (HCT116 [19]): smaller and more transparent | tumor size compared with control group (HT29 [20]): smaller and more transparent | cell viability (SNU790): decreased | cell viability (SNU80): decreased

From patent publication US20230330095A1, “PHARMACEUTICAL COMPOSITION FOR ANTI-CANCER COMPRISING NUPR1 ISOFORM A INHIBITOR” (SEOUL NATIONAL UNIVERSITY R&DB FOUNDATION, priority 2022, published 2023)
